Measurements published in publication PMC8002323 (Molecules, 2021).
Values joined by “and” are separate entries in the source; they are usually repeats but may differ in a detail not shown here. Equal values may be shown once.

What was measured:
Aβ1–42 [1] = molecular target: T1, Aβ1–42 (Homo sapiens, UniProt P05067); conditions: self-induced aggregation, literature value for DNP; ref [3],[27]; cited from earlier work
[2] = molecular target: T2, AChE (type VI-S, from electric eel) (Electrophorus electricus, UniProt O42275); experiment: biochemical; format: biochemical; conditions: for IC50: AChE from Electric eel, mean of two independent experiments ± SD, read-out: AChE Inhib. IC50 ± SD; for AChE inhibition (in words): AChE from electric eel
T2 construct: purchased
Protocol: The acetylcholinesterase inhibitory activity was assessed by an adaptation of the Ellman’s method. The assay solution contained 4-(2-hydroxyethyl)-1-piperazineethanesulfonic acid (HEPES) buffer (50 mM, pH 8.0), 5,5′-dithiobis-(2-nitrobenzoic acid) (DTNB, 3 mM), the stock solution of each compound in methanol (1 mg/mL), AChE (type VI-S, from electric eel) and the required quantity of methanol to reach the desired volume of sample mixture in a 1 mL cuvette. Samples were incubated for 15 min and then 75 μL of acetylthiocholine iodide (AThChI) solution (16 mM) was added. The reaction was monitored for 5 min at 405 nm. Assays were run with a blank containing all the reagents but AChE. Reaction rates were calculated as well as the enzyme activity. A positive control reaction was performed using methanol as a sample solution. The fraction of enzyme inhibition due to the existence of rising concentration of the test compound was calculated using Equation (1), where vi = starting reaction rate in the presence of inhibitor; vo = starting reaction rate of the control reaction. (1) %I =100−100 × […]
The inhibition curves were achieved by plotting the percentage of enzymatic inhibition against inhibitor concentration and a calibration curve was got from which the linear regression parameters were obtained.

Aβ1–42 [3] = molecular target: T1, Aβ1–42; experiment: Inhibition of self-induced Aβ1–42 aggregation (thioflavin-T fluorescence method); conditions: read-out: Aβ1–42 Aggreg. Inhib.
Protocol: Inhibitory capacity of the compounds for the Aβ1–42 aggregation was assessed based on the fluorescence properties of thioflavine T (ThT), measured with a Varian Cary Eclipse spectrofluorometer.
A previously prepared solution of Aβ1–42 was used.
To the resulting alkaline Aβ1–42 solution was added phosphate buffer (pH 8.0). The compounds tested were diluted in MeOH (1 mg/mL) and then further diluted in phosphate buffer. Two different types of experiments were prepared in a final volume of 60 μL. The solution for the control ligand assay consists in 30 µL of phosphate buffer and 30 µL of Aβ1–42 solution, to evaluate the aggregation without any inhibition, while the solution for the ligand assay consists of 20 µL of phosphate buffer, 30 µL of Aβ1–42 solution and 10 µL of the ligand solution, to evaluate the effect of the ligand in the aggregation. For each experiment a blank sample, without Aβ1–42, is used to monitor the effect of the compounds in the fluorescence. These samples were left incubating in a water bath (CERTOMAT WR), for 24 h, at 37 °C with gentle shaking [14].
A glycine-NaOH buffer (pH 8.5) containing ThT (5 μM) was added to each sample. Samples were placed in a microplate and the fluorescence signal was monitored at 446 nm (λexc) and 490 nm (λem) [40].
(2) %I=100−Fi/F0× 100 where Fi and F0 are the fluorescence intensities in the presence and absence of the compound, respectively, minus the fluorescence intensities of the respective blanks. Statistical analysis was performed in Microsoft Office Excel®.

[4] = tested on: SH-SY5Y human neuroblastoma cells; experiment: Dose-response screening of cell viability (MTT reduction assay); format: cell-based; conditions: SH-SY5Y cells treated 25 h, 2.5–50 μM
Protocol: (§1) SH-SY5Y human neuroblastoma cells (ATCC-CRL-2266) (American Type Culture Collection, Manassas, Virgínia, USA) were plated in DMEM/F12 (Dulbecco’s Modified Eagle Medium/Ham’s F-12 Nutrient Mixture; Thermo Fisher Scientific) with 10% heat inactivated fetal bovine serum, 50 U/mL penicillin and 50 U/mL streptomycin under a humidified atmosphere with 95% relative humidity at 37 °C at a 0.16 × 10^6 cells/mL density. Each of the tested substances (6, 7, 8, 9) were dissolved in DMSO to prepare a stock solution at a 25 mM concentration and stored at −20 °C until further use. SH-SY5Y cells were treated for 25 h with varying concentrations of compounds, in order to select the highest non-toxic concentration. The selected concentrations for each compound were: 40 µM final concentration for 6; 15 µM final concentration for 7; 30 µM final concentration for 8 and 2.5 µM final concentration for 9. […] For the neuroprotection assays, the incubation with Aβ1–42 or L-ascorbic acid/ferrous sulphate treatment was preceded with 1 h incubation of the compounds when needed. Pre-incubation was followed by 24 h treatment of Aβ1–42 or Fe/Asc, accounting a total of 25 h. Aβ1–42 was prepared as 276.9 µM stock in sterile water and administrated in the medium at a 2.5 µM final concentration. Ferrous sulphate was freshly prepared as 0.36 M stock in water and added to the medium at 2.5 mM final concentration. L-ascorbic acid was freshly prepared as 80 mM stock in water and added to the medium at 5 mM final concentration. Aβ1–42 was purchased from Bachem (Torrance, CA, USA) and ferrous sulphate and L-ascorbic acid from Sigma Chemical Co. (St. Louis, MO, USA).
Cellular viability was determined by employing the MTT (3-(4,5-dimethylthiazol-2-yl)-2,5-diphenyltetrazolium bromide) reduction assay, according to the Mosmann method. This colorimetric test consists in the ability of the succinate dehydrogenase enzyme from viable cells to metabolize the MTT into a formazan. In the end of treatments, cells medium was aspirated and cells were washed with 1 × PBS (phosphate-buffered saline) to remove dead cells. MTT solution (200 µL, 0.5 mg/mL) was added to each well and incubated for 2 h protected from light. Formazan precipitates were then dissolved in DMSO and absorbance measured at 570 nm. The ability to reduce MTT was expressed as a percentage of untreated, control cells.

SH-SY5Y cells = experiment: Neuroprotective effect on Aβ42-induced toxicity (MTT reduction assay); format: cell-based, human; conditions: Aβ42 2.5 μM 24 h, 1 h pre-incubation; 7 (15 µM), 8 (30 µM), 9 (2.5 µM)
Protocol: as §1
Cellular viability was determined by employing the MTT (3-(4,5-dimethylthiazol-2-yl)-2,5-diphenyltetrazolium bromide) reduction assay, according to the Mosmann method. […] Formazan precipitates were then dissolved in DMSO and absorbance measured at 570 nm. The ability to reduce MTT was expressed as a percentage of untreated, control cells.

T1 sequence (P05067 672-713 limits assumed): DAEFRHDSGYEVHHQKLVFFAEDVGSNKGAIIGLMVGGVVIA
T2 sequence (O42275 24-633): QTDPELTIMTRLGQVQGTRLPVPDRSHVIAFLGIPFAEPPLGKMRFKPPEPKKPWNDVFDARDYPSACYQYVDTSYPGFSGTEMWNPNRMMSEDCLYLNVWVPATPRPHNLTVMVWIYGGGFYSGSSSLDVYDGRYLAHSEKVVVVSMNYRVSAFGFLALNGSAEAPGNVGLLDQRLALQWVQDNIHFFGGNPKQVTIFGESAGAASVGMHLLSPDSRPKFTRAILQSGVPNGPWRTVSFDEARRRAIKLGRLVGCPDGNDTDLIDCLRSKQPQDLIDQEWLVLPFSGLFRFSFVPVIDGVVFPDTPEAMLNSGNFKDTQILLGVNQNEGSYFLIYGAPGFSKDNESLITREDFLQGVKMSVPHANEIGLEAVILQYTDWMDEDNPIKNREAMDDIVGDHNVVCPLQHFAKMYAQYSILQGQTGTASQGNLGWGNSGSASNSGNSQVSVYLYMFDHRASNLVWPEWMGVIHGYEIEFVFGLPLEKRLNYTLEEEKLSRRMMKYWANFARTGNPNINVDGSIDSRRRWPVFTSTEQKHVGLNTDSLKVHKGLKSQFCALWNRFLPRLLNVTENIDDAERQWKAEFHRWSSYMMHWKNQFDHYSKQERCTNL

Compound	Aβ1–42 Aggreg. Inhib. (Aβ1–42 [1]) [%]	IC50 [2]	AChE inhibition (in words) [2]	inhibition at 40 µM (Aβ1–42 [3]) [%]	highest non-toxic concentration (selected concentration) [4] [µM]	reversal of neurotoxicity induced by Aβ peptides (in words) (SH-SY5Y cells)
COc1cc2c(cc1OC)C(=O)C(CC1CCN(Cc3ccccc3)CC1)C2 (stereo not drawn) [DNP, donepezil]	<5					
Cc1ccc(S(=O)(=O)NCCN2CCN(Cc3ccccc3)CC2)cc1 [Compound 5, N-(2-(4-benzylpiperazin-1-yl)ethyl)-4-methylbenzenesulfonamide]		≥ 100 µM	do not show significant inhibition	41.8		
Nc1c2c(nc3ccccc13)CCCC2 [Tacrine, tacrine, reference compound]				54.5		
COc1ccc(S(=O)(=O)NCCN2CCN(Cc3ccccc3)CC2)cc1 [Compound 6, N-(2-(4-benzylpiperazin-1-yl)ethyl)-4-methoxybenzenesulfonamide]		89 ± 9 µM	do not show significant inhibition	37.2	40	
O=S(=O)(NCCN1CCN(Cc2ccccc2)CC1)c1ccc(-c2ccccc2)cc1 [Compound 7, N-(2-(4-benzylpiperazin-1yl)ethyl)-[1,1’-biphenyl]-4-sulfonamide]		38.7 ± 0.2 µM		34.6	15	able to relapse the neurotoxicity induced by Aβ peptides
O=S(=O)(NCC1CCN(Cc2ccccc2)CC1)c1ccc(-c2ccccc2)cc1 [Compound 9, N-((1-benzylpiperidin-4-yl)methyl)-[1,1’-biphenyl]-4-sulfonamide]		1.6 to 6.2 µM and 1.6 µM		60.7	2.5	more modest results in reverting neurotoxicity
COc1ccc(S(=O)(=O)NCC2CCN(Cc3ccccc3)CC2)cc1 [Compound 8, N-((1-benzylpiperidin-4-yl)methyl)-4-methoxybenzenesulfonamide]		1.6 to 6.2 µM and 6.2 µM		64.2	30	more modest results in reverting neurotoxicity
